Source: patent US9783499B2, “Quinoline derivatives and their applications” (Shenyang Pharmaceutical University, priority 2012, dated 2017)
Values after ≈ are worked out from the molar mass of the structure shown.

Legend:
[1] = tested on: human tumor cell lines (such as human lung cancer cells, human gastric cancer cells, etc.); conditions: cited from earlier work
[2] = tested on: H460 (human lung cancer cell); test: In vitro anti-tumor cellular activity (MTT), H460; type: cell-based; conditions: for H460 IC50: 72 hours
Description: (§1) After pouring the cell dissociation buffer to the centrifugetube, nutrient solution was added to stop digestion. The centrifugetube were centrifuged for 10 min under 800 r/min, the liquid supernatant was removed, 5 mL culture solution was added, after mixing by pipetting the cell, took 10 μL cell suspension to the cell counting plat, and adjusted the cell concentration to 10^4/well. Among the 96 wells, A1 is empty, 100 μL of cell suspension were added to the other wells. The 96 well plates were incubated in the incubator for 24 h. […] The 96-well plates were placed in an incubator and cultivated for 72 hours. (3) The culture media containing the compounds in the 96-well plates was discarded, and the cells were washed with phosphate buffered solution (PBS) twice. Each well was added with 100 μL MTT (tetrazole) (0.5 mg/mL), and then placed in an incubator to incubate for 4 hours, after which MTT solution was discarded and 100 μL dimethyl sulfoxide was added thereto.

[3] = tested on: MDA-MB-231 (human beast cancer cell); test: In vitro anti-tumor cellular activity (MTT), MDA-MB-231; type: cell-based; conditions: 72 hours
Description: as §1

[4] = tested on: SMMC-7721 (hepatoma cell); test: In vitro anti-tumor cellular activity (MTT), SMMC-7721; type: cell-based; conditions: 72 hours
Description: as §1

[5] = tested on: MKN-45 (human gastric carcinoma cell); test: In vitro anti-tumor cellular activity (MTT), MKN-45; type: cell-based; conditions: 72 hours
Description: as §1

[6] = tested on: HT-29 (colon cancer cell); test: In vitro anti-tumor cellular activity (MTT), HT-29; type: cell-based; conditions: 72 hours
Description: as §1

[7] = tested on: U87MG (Human malignant glioblastoma cell); test: In vitro anti-tumor cellular activity (MTT), U87MG; type: cell-based; conditions: 72 hours
Description: as §1

In the case of `COc1cc2c(Oc3ccc(NC(=O)C4(C(=O)Nc5ccc(F)cc5)CC4)cc3F)ccnc2cc1OCCCN1CCOCC1` [Foretinib], the “IC50 against a variety of human tumor cell lines” value [1] is listed as “about 0.004 mg/mL”.

With `COc1cc2c(Oc3ccc(NC(=S)N/N=C/c4ccccc4)cc3F)ccnc2cc1OCCCN1CCCC1` [Example 36, (E)-N^1-(3-fluoro-4-(6-methoxy-7-(3-(pyrrolidin-1-yl)propoxy)quinoline-4-yloxy)phenyl)-N^4-(benzaldehyde)thiosemicarbazone] the “H460 IC50” value [2] was 0.034 µg/mL, the “MDA-MB-231 IC50” value [3] was 0.048 µg/mL and the “SMMC-7721 IC50” value [4] was 0.35 µg/mL. The “MKN-45 IC50” value [5] was 0.11 µg/mL, the “HT-29 IC50” value [6] was 0.012 µg/mL and the “U87MG IC50” value [7] was 0.29 µg/mL.

For `COc1cc2c(Oc3ccc(NC(=O)N/N=C/c4ccc(F)c(F)c4)cc3F)ccnc2cc1OCCCN1CCCC1` [Example 22, (E)-N^1-(3-fluoro-4-(6-methoxy-7-(3-(pyrrolidin-1-yl)propoxy)quinoline-4-lyoxy)phenyl)-N^4-(3,4-difluorobenzaldehyde)semicarbazone], the “H460 IC50” value [2] was 0.29 µg/mL, the “MDA-MB-231 IC50” value [3] was 0.31 µg/mL and the “SMMC-7721 IC50” value [4] was 1.2 µg/mL. The “MKN-45 IC50” value [5] was 0.37 µg/mL, the “HT-29 IC50” value [6] was 0.19 µg/mL and the “U87MG IC50” value [7] was 0.66 µg/mL.

In the case of “(E)-N^1-phenyl-N^4-(3-fluoro-4-(6-methoxy-7-(3-(4-methylpiperidin-1-yl)propoxy)quinoline-4-yloxy)benzaldehyde)thiosemicarbazone [Example 63]”, the “H460 IC50” value [2] is reported as 0.33 µg/mL, the “MDA-MB-231 IC50” value [3] is reported as 0.14 µg/mL and the “SMMC-7721 IC50” value [4] is reported as 0.64 µg/mL. For the same molecule, the “MKN-45 IC50” value [5] was 0.73 µg/mL, the “HT-29 IC50” value [6] was 0.50 µg/mL and the “U87MG IC50” value [7] was 1.0 µg/mL.

In the case of `COc1cc2c(Oc3ccc(NC(=O)N/N=C/c4ccccc4)cc3F)ccnc2cc1OCCCN1CCC(C)CC1` [Example 2, (E)-N^1-(3-fluoro-4-(6-methoxy-7-(3-(4-methylpiperidin-1-yl)propoxy)quinoline-4-yloxy)phenyl)-N^4-(benzaldehyde)semicarbazone], the “H460 IC50” value [2] is reported as 0.15 µg/mL, the “MDA-MB-231 IC50” value [3] is reported as 0.12 µg/mL and the “SMMC-7721 IC50” value [4] is reported as 0.43 µg/mL. The “MKN-45 IC50” value [5] was 0.18 µg/mL, the “HT-29 IC50” value [6] was 0.17 µg/mL and the “U87MG IC50” value [7] was 0.31 µg/mL.

For `COc1cc2c(Oc3ccc(NC(=S)N/N=C/c4ccccc4)cc3F)ccnc2cc1OCCCN1CCC(C)CC1` [Example 37, (E)-N^1-(3-fluoro-4-(6-methoxy-7-(3-(4-methylpiperidin-1-yl)propoxy)quinoline-4-yloxy)phenyl)-N^4-(benzaldehyde)thiosemicarbazone], the “H460 IC50” value [2] was 0.089 µg/mL, the “MDA-MB-231 IC50” value [3] was 0.13 µg/mL and the “SMMC-7721 IC50” value [4] was 0.43 µg/mL. The “MKN-45 IC50” value [5] was 0.56 µg/mL, the “HT-29 IC50” value [6] was 0.13 µg/mL and the “U87MG IC50” value [7] was 0.50 µg/mL.

In the case of “(E)-N^1-(3-fluoro-4-(6-methoxy-7-(3-(4-methylpiperidin-1-yl)propoxy)quinoline-4-yloxy)phenyl)-N^4-(2-chloro-4-fluorobenzaldehyde)semicarbazone [Example 13]”, the “H460 IC50” value [2] is reported as 0.097 µg/mL, the “MDA-MB-231 IC50” value [3] is reported as 0.16 µg/mL and the “SMMC-7721 IC50” value [4] is reported as 0.29 µg/mL. For the same molecule, the “MKN-45 IC50” value [5] was 0.27 µg/mL, the “HT-29 IC50” value [6] was 0.16 µg/mL and the “U87MG IC50” value [7] was 0.33 µg/mL.

In the case of `COc1cc2c(Oc3ccc(NC(=S)N/N=C/c4ccccc4[N+](=O)[O-])cc3F)ccnc2cc1OCCCN1CCCC1` [Example 32], the “H460 IC50” value [2] is reported as 0.19 µg/mL, the “MDA-MB-231 IC50” value [3] is reported as 0.13 µg/mL and the “SMMC-7721 IC50” value [4] is reported as 0.77 µg/mL. For the same molecule, the “MKN-45 IC50” value [5] was 0.33 µg/mL, the “HT-29 IC50” value [6] was 0.24 µg/mL and the “U87MG IC50” value [7] was 1.2 µg/mL.

With `COc1cc2c(Oc3ccc(NC(=S)N/N=C/c4ccccc4)cc3F)ccnc2cc1OCCCN1CCOCC1` [Example 38, (E)-N^1-(3-fluoro-4-(6-methoxy-7-(3-(morpholin-4-yl)propoxy)quinoline-4-yloxy)phenyl)-N^4-(benzaldehyde)thiosemicarbazone] the “H460 IC50” value [2] was 0.16 µg/mL, the “MDA-MB-231 IC50” value [3] was 0.18 µg/mL and the “SMMC-7721 IC50” value [4] was 1.4 µg/mL. For the same molecule, the “MKN-45 IC50” value [5] was 0.11 µg/mL, the “HT-29 IC50” value [6] was 0.28 µg/mL and the “U87MG IC50” value [7] was 0.90 µg/mL.

For `COc1cc2c(Oc3ccc(N(/N=C/c4ccc(F)cc4)C(N)=S)cc3F)ccnc2cc1OCCCN1CCOCC1` [Example 45, (E)-N^1-(3-fluoro-4-(6-methoxy-7-(3-(morpholin-4-yl)propoxy)quinoline-4-yloxy)phenyl)-N^4-(4-fluorobenzaldehyde)thiosemicarbazone], the IC50 ([2]; Homo sapiens, NCI-H460, 72 hours) was 0.11 µg/mL (≈ 0.181 µM), the IC50 ([3]; Homo sapiens) was 0.17 µg/mL (≈ 0.28 µM) and the IC50 ([4]; Homo sapiens) was 1 µg/mL (≈ 1.65 µM). The IC50 ([5]; Homo sapiens) was 0.37 µg/mL (≈ 0.609 µM), the IC50 ([6]; Homo sapiens) was 0.19 µg/mL (≈ 0.313 µM) and the IC50 ([7]; Homo sapiens, U-87 MG) was 0.9 µg/mL (≈ 1.48 µM).

For `COc1cc2c(Oc3ccc(C=NNC(=S)Nc4ccc(Cl)c(C(F)(F)F)c4)cc3F)ccnc2cc1OCCCN1CCC(C)CC1` [Example 64, (E)-N^1-[4-chloro-3-(trifluoromethyl)phenyl]-N^4-(3-fluoro-4-(6-methoxy-7-(3-(4-methylpiperidin-1-yl)propoxy)quinoline-4-yloxy)benzaldehyde)thiosemicarbazone], the “H460 IC50” value [2] was 0.56 µg/mL, the “MDA-MB-231 IC50” value [3] was 0.98 µg/mL and the “SMMC-7721 IC50” value [4] was 1.0 µg/mL. The “MKN-45 IC50” value [5] was 0.65 µg/mL, the “HT-29 IC50” value [6] was 0.34 µg/mL and the “U87MG IC50” value [7] was 1.7 µg/mL.

For `N.N.[Cl][Pt][Cl]` [Cisplatin, reference compound], the “H460 IC50” value [2] was 0.23 µg/mL, the “MDA-MB-231 IC50” value [3] was 0.46 µg/mL and the “SMMC-7721 IC50” value [4] was 0.90 µg/mL. For the same molecule, the “MKN-45 IC50” value [5] was 0.68 µg/mL, the “HT-29 IC50” value [6] was 1.0 µg/mL and the “U87MG IC50” value [7] was 0.19 µg/mL.

For `COc1cc2c(Oc3ccc(NC(=O)NN=Cc4ccc(Cl)cc4Cl)cc3F)ccnc2cc1OCCCN1CCOCC1` [Example 20, (E)-N^1-(3-fluoro-4-(6-methoxy-7-(3-(morpholin-4-yl)propoxy)quinoline-4-yloxy)phenyl)-N^4-(2,4-dichlorobenzaldehyde)semicarbazone], the “H460 IC50” value [2] was 1.1 µg/mL, the “MDA-MB-231 IC50” value [3] was 1.7 µg/mL and the “SMMC-7721 IC50” value [4] was 6.7 µg/mL. For the same molecule, the “MKN-45 IC50” value [5] was 1.5 µg/mL, the “HT-29 IC50” value [6] was 0.84 µg/mL and the “U87MG IC50” value [7] was 4.2 µg/mL.

For “(E)-N^1-(3-fluoro-4-(6-methoxy-7-(3-(piperidin-1-yl)propoxy)quinoline-4-yloxy)phenyl)-N^4-(2,4-dichlorobenzaldehyde)thiosemicarbazone [Example 41]”, the “H460 IC50” value [2] was 0.097 µg/mL, the “MDA-MB-231 IC50” value [3] was 0.088 µg/mL and the “SMMC-7721 IC50” value [4] was 0.66 µg/mL. For the same molecule, the “MKN-45 IC50” value [5] was 0.10 µg/mL, the “HT-29 IC50” value [6] was 0.13 µg/mL and the “U87MG IC50” value [7] was 0.54 µg/mL.

With “(E)-N^1-(3-fluoro-4-(6-methoxy-7-(3-(piperidin-1-yl)propoxy)quinoline-4-yloxy)phenyl)-N^4-(2-nitrobenzaldehyde)thiosemicarbazone [Example 34]” the “H460 IC50” value [2] was 0.089 µg/mL, the “MDA-MB-231 IC50” value [3] was 0.077 µg/mL and the “SMMC-7721 IC50” value [4] was 0.24 µg/mL. For the same molecule, the “MKN-45 IC50” value [5] was 0.12 µg/mL, the “HT-29 IC50” value [6] was 0.076 µg/mL and the “U87MG IC50” value [7] was 0.19 µg/mL.

For `COc1cc2c(Oc3ccc(NC(=O)N/N=C/c4ccc(Cl)cc4Cl)cc3F)ccnc2cc1OCCCN1CCCC1` [Example 19, (E)-N^1-(3-fluoro-4-(6-methoxy-7-(3-(pyrrolidin-1-yl)propox)quinoline-4-yloxy)phenyl)-N^4-(2,4-dichlorobenzaldehyde)semicarbozone], the “H460 IC50” value [2] was 0.96 µg/mL, the “MDA-MB-231 IC50” value [3] was 1.2 µg/mL and the “SMMC-7721 IC50” value [4] was 0.97 µg/mL. For the same molecule, the “MKN-45 IC50” value [5] was 0.71 µg/mL, the “HT-29 IC50” value [6] was 1.4 µg/mL and the “U87MG IC50” value [7] was 1.9 µg/mL.

With `COc1cc2c(Oc3ccc(/C=N/NC(=S)Nc4cccc(Br)c4)cc3F)ccnc2cc1OCCCN1CCOCC1` [Example 65, (E)-N^1-(3-bromophenyl)-N^4-(3-fluoro-4-(6-methoxy-7-(3-(morpholin-4-yl)propoxy)quinoline-4-yloxy)benzaldehyde)thiosemicarbazone] the “H460 IC50” value [2] was 2.4 µg/mL, the “MDA-MB-231 IC50” value [3] was 2.1 µg/mL and the “SMMC-7721 IC50” value [4] was 2.8 µg/mL. For the same molecule, the “MKN-45 IC50” value [5] was 4.8 µg/mL, the “HT-29 IC50” value [6] was 1.9 µg/mL and the “U87MG IC50” value [7] was 3.4 µg/mL.
